Reference: patent EP0200565A2, “Method for production of peroxidase” (NISSIN FOOD PRODUCTS CO., LTD., priority 1985, dated 1986)
Like-named read-outs stand apart in the source and are kept apart here.

System: peroxidase
Test: Activity of the isolated peroxidase towards various hydrogen donors
Format: biochemical, Coprinus cinereus IFO 30116
Procedure: Its action is shown by the followina reaction formula: [drawing 2] where AH2 is a hydrogen donor, and A is the oxidized hydrogen donor.
The enzyme was assayed for activity with respect to a variety of hydrogen donors.
Values snown in Taoie 2 are relative ones with that of phenol set at 100%.

[1] = relative values with that of phenol set at 100%, peroxidase of Coprinus cinereus IFO 30116

Row | Molecule | Strength of Action [1] | Strength of Action [%]
1 | Oc1ccccc1O [Catechol] | 460% | –
2 | COc1ccccc1O [Guaiacol] | 200% | –
3 | Oc1ccc(O)cc1 [Hydroquinone] | 57% | –
4 | Oc1ccccc1 [Phenol] | 100 (%) | –
5 | Oc1cccc(O)c1 [Resorcinol] | 0% | –
6 | COc1cc(-c2ccc(N)c(OC)c2)ccc1N [o-dianisidine] | 5400% | –
7 | Cc1cc(-c2ccc(N)c(C)c2)ccc1N [o-tolidine] | – | 5400
8 | Oc1cccc2ccccc12 [α-naphthol] | 1200% | –
9 | δ-hydroquinon | 57% | –
